Measurements published in patent US9751851B2, “Molecules and compositions that inhibit gram negative bacteria and their uses” (THE TRUSTEES OF PRINCETON UNIVERSITY, priority 2013, dated 2017).

Legend:
[1] = target: T1, LasR (Pseudomonas aeruginosa, UniProt P25084); test: LasR-GFP assay (rsaL-gfp reporter in recombinant E. coli); format: cell-based, P. aeruginosa
T1 construct: expressed in transfected cells; host or cells: E. coli BL21-Gold (DE3) carrying pET23b-lasR
Method: (§1) Methods. The LasR-GFP assays were performed in E. coli strain BL21 DE3 Gold (Agilent) carrying pET23b (Novagen) containing lasR (maintained with 100 μg/mL ampicillin) and carrying plasmid pEVS141 (31) containing the rsaL promoter driving expression of gfp (maintained with […] of kanamycin.) The RhlR-GFP assays were performed in E. coli strain BL21 DE3 Gold (Agilent) carrying pET23b (Novagen) containing rhlR (maintained with 100 μg/mL ampicillin) and carrying plasmid pEVS141 containing the rhlA promoter driving expression of gfp (maintained with 50 μg/mL of kanamycin.) These E. coli strains were grown overnight and subcultured into fresh medium with appropriate antibiotics at a 1:100 dilution and grown shaking for 8 hr at 37° C. for the LasR-GFP strain and 12 hr for the RhlR-GFP construct. 50 nM 3OC12-HSL or 20 μM C4-HSL was added to the LasR-GFP and RhlR-GFP preparations, respectively. Compounds were tested at 1 mM for antagonism and at 100 nM or 20 μM for agonism. These concentrations were chosen for agonism studies to match the concentrations of autoinducers used in the experiments. For antagonism studies, the EC95 concentration was used for each receptor. GFP was measured on an Envision plate reader.
(§2) The LasR-GFP assays were performed in E. coli strain BL21 DE3 Gold (Agilent) carrying pET23b (Novagen) containing lasR (maintained with 100 μg/mL ampicillin) and carrying plasmid pEVS141 (31) containing the rsaL promoter driving expression of gfp (maintained with 50 μg/mL of kanamycin.) The RhlR-GFP assays were performed in E. coli strain BL21 DE3 Gold (Agilent) carrying pET23b (Novagen) containing rhlR (maintained with 100 μg/mL ampicillin) and carrying plasmid pEVS141 (31) containing the rhlA promoter driving expression of gfp (maintained with 50 μg/mL of kanamycin.) These E. coli strains were grown overnight and subcultured into fresh medium with appropriate antibiotics at a 1:100 dilution and grown shaking for 8 hr at 37° C. for the LasR-GFP strain and 12 hr for the RhlR-GFP construct. 50 nM 3OC12-HSL or 20 μM C4-HSL was added to the LasR-GFP and RhlR-GFP preparations, respectively. Compounds were tested at 1 mM for antagonism and at 100 nM or 20 μM for agonism. These concentrations were chosen for agonism studies to match the concentrations of autoinducers used in our experiments. For antagonism studies, we used the EC95 concentration for each receptor. GFP was measured on an Envision plate reader.

[2] = target: T2, RhlR (Pseudomonas aeruginosa, UniProt P54292); test: RhlR-GFP assay (rhlA-gfp reporter in recombinant E. coli); format: cell-based, P. aeruginosa
T2 construct: expressed in transfected cells; host or cells: E. coli BL21-Gold (DE3) carrying pET23b-rhlR
T2 sequence (P54292 whole entry): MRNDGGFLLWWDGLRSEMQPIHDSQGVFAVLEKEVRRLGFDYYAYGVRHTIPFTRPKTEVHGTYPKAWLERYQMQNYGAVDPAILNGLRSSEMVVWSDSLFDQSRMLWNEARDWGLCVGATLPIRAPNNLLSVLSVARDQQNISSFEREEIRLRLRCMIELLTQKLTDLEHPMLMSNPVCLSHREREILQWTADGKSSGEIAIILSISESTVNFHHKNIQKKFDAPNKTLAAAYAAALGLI
Method: as §1, §2

[3] = test system: P. aeruginosa PA14; test: Static culture biofilm thickness by confocal microscopy; format: cell-based
Method: Static culture. Methods. Overnight P. aeruginosa cultures were back-diluted 1:1000 into tryptone broth with 100 μM mBTL, or an equivalent concentration of DMSO, and grown to mid-logarithmic phase (OD600=0.5). A 96-well plate with glass bottom (Thermo Fisher), which was filled with 200 μL of tryptone broth containing 100 μM mBTL or DMSO, was then inoculated with 2 μL of the mid-logarithmic culture. The 96-well plates were incubated for 24 h, prior to adding 5 μM SYTO 9 nucleic acid stain (Invitrogen). Biofilm thickness was measured using confocal microscopy (Nikon).

T1 sequence (P25084 whole entry): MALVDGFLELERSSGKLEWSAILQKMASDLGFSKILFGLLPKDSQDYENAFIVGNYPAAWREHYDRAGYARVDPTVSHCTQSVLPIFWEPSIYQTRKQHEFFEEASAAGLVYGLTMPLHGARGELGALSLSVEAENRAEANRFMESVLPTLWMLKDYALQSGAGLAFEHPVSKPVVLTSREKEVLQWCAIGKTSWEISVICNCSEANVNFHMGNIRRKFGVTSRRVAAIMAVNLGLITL

meta-bromothiolactone [mBTL]
inhibition of LasR activation of rsaL-gfp (antagonism) ([1]; mBTL at 1 mM, 3OC12-HSL at EC95): 22% | LasR partial agonism (gfp expression, cognate autoinducer = 100%) ([1]; no autoinducer, compound at 100 nM): 72% | inhibition of RhlR activation of rhlA-gfp (antagonism) ([2]; mBTL at 1 mM, C4-HSL at EC95 (20 μM)): 43% | RhlR partial agonism (gfp expression, cognate autoinducer = 100%) ([2]; no autoinducer, compound at 20 μM): 80% | average biofilm height ([3]; lasR null strain, 100 μM mBTL (untreated 15.7+/−4.9)): 6.6+/−2.3 μm | average biofilm height ([3]; lasR, rhlR double null strain, 100 μM mBTL (untreated 11.9+/−5.5)): 16.2+/−5.9 μm | average biofilm height ([3]; rhlR null strain, 100 μM mBTL (untreated 25+/−10.6)): 22.1+/−7.5 μm | average biofilm height ([3]; wild-type, 100 μM mBTL, 24 h (untreated 27.5+/−11.5)): 10+/−4 μm
